The SangsterLogP compilation

logP | Structure (SMILES)
3.76 | CCCC(=O)O[C@]1(C(=O)CCl)[C@@H](C)C[C@H]2[C@@H]3CCC4=CC(=O)C=C[C@]4(C)[C@@]3(F)C(=O)C[C@@]21C
5.26 | CCCCC(=O)OCC(=O)[C@@]1(OC(=O)CCCC)[C@@H](C)C[C@H]2[C@@H]3CCC4=CC(=O)C=C[C@]4(C)[C@@]3(F)[C@@H](O)C[C@@]21C
3.09 | CCC(=O)O[C@]1(C(C)=O)[C@@H](C)C[C@H]2[C@@H]3CCC4=CC(=O)C=C[C@]4(C)[C@@]3(F)C(=O)C[C@@]21C
3.79 | CCCCC(=O)O[C@]1(C(=O)CO)CC[C@H]2[C@@H]3CCC4=CC(=O)CC[C@]4(C)[C@H]3[C@@H](O)C[C@@]21C
2.45 | CC(=O)O[C@]1(C(=O)CO)CC[C@H]2[C@@H]3CCC4=CC(=O)CC[C@]4(C)[C@H]3C(=O)C[C@@]21C
3.63 | CCCC(=O)O[C@]1(C(=O)CCl)[C@@H](C)C[C@H]2[C@@H]3CCC4=CC(=O)C=C[C@]4(C)[C@@]3(F)[C@@H](O)C[C@@]21C
3.06 | CCC(=O)OCC(=O)[C@@]1(O)[C@@H](C)C[C@H]2[C@@H]3CCC4=CC(=O)C=C[C@]4(C)[C@@]3(F)[C@@H](O)C[C@@]21C
1.58 | C[C@]12C=CC(=O)C=C1CC[C@@H]1[C@@H]2[C@@H](O)C[C@@]2(C)[C@H]1CC[C@]2(O)C(=O)CO
2.8 | CCC(=O)OCC(=O)[C@@]1(O)CC[C@H]2[C@@H]3CCC4=CC(=O)CC[C@]4(C)[C@H]3[C@@H](O)C[C@@]21C
3.3 | CCC(=O)O[C@]1(C(=O)CCl)[C@@H](C)C[C@H]2[C@@H]3CCC4=CC(=O)C=C[C@]4(C)[C@H]3C(=O)C[C@@]21C
2.43 | CC(=O)OC1(C(=O)CO)CCC2C3CCC4=CC(=O)C=CC4(C)C3C(=O)CC21C (centres undefined)
2.35 | CC(=O)[C@@]1(O)[C@@H](C)C[C@H]2[C@@H]3CCC4=CC(=O)C=C[C@]4(C)[C@@]3(F)[C@@H](O)C[C@@]21C
2.48 | C[C@H]1C[C@H]2[C@@H]3CCC4=CC(=O)C=C[C@]4(C)[C@@]3(F)[C@@H](O)C[C@]2(C)[C@@]1(O)C(=O)CCl
3.82 | CCCCC(=O)O[C@]1(C(=O)CO)CC[C@H]2[C@@H]3CCC4=CC(=O)C=C[C@]4(C)[C@H]3[C@@H](O)C[C@@]21C
2.91 | CCCC(=O)OCC(=O)[C@@]1(O)CCC2C3CCC4=CC(=O)CC[C@]4(C)C3C(O)C[C@@]21C (some centres undefined)
2.7 | CCC(=O)O[C@]1(C(=O)CO)CC[C@H]2[C@@H]3CCC4=CC(=O)CC[C@]4(C)[C@H]3[C@@H](O)C[C@@]21C
3.87 | CCCCC(=O)OCC(=O)[C@@]1(O)[C@@H](C)C[C@H]2[C@@H]3CCC4=CC(=O)C=C[C@]4(C)[C@@]3(F)[C@@H](O)C[C@@]21C
1.37 | CC12CCC(=O)C=C1CCC1C3CCC(O)(C(=O)CO)C3(C)CC(=O)C12F (centres undefined)
2.61 | C[C@H]1C[C@H]2[C@@H]3CCC4=CC(=O)C=C[C@]4(C)[C@@]3(F)C(=O)C[C@]2(C)[C@@]1(O)C(=O)CCl
3.55 | CCCC(=O)OCC(=O)C1(O)C(C)CC2C3CCC4=CC(=O)C=CC4(C)C3(F)C(O)CC21C (centres undefined)
3.18 | CCCC(=O)O[C@]1(C(=O)CO)CC[C@H]2[C@@H]3CCC4=CC(=O)CC[C@]4(C)[C@H]3[C@@H](O)C[C@@]21C
3.55 | CCC(=O)O[C@]1(C(=O)CBr)[C@@H](C)C[C@H]2[C@@H]3CCC4=CC(=O)C=C[C@]4(C)[C@@]3(F)C(=O)C[C@@]21C
3.62 | CCCCC(=O)OCC(=O)[C@@]1(O)CC[C@H]2[C@@H]3CCC4=CC(=O)CC[C@]4(C)[C@H]3[C@@H](O)C[C@@]21C
2.06 | C[C@]12C[C@H](O)[C@H]3[C@@H](CCC4=CC(=O)CC[C@@]43C)[C@@H]1CC[C@@H]2C(=O)CO
3.28 | CCC(=O)O[C@]1(C(=O)CCl)[C@@H](C)C[C@H]2[C@@H]3CCC4=CC(=O)C=C[C@]4(C)[C@@]3(Cl)[C@@H](O)C[C@@]21C
3.18 | CCC(=O)O[C@]1(C(=O)CCl)[C@@H](C)C[C@H]2[C@@H]3CCC4=CC(=O)C=C[C@]4(C)[C@@]3(F)[C@@H](O)C[C@@]21C
1.51 | C[C@]12C=CC(=O)C=C1CC[C@H]1[C@@H]3CC[C@](O)(C(=O)CO)[C@@]3(C)C[C@H](O)[C@@]12F
3.34 | CCC(=O)O[C@]1(C(=O)CCl)[C@@H](C)C[C@H]2[C@@H]3CCC4=CC(=O)C=C[C@]4(C)[C@H]3[C@@H](O)C[C@@]21C
3.46 | CCC(=O)O[C@]1(C(=O)CCl)[C@@H](C)C[C@H]2[C@@H]3CCC4=CC(=O)C=C[C@]4(C)[C@@]3(F)C(=O)C[C@@]21C
